Values of other authors, collected in US20160051485A1, “Biodegradable Bionanoparticles for Releasing the GSE24-2 Peptide, Method for the Production Thereof, and Use of Same” (CONSEJO SUPERIOR DE INVESTIGACIONES (CSIC), priority 2013, published 2016).

Tested on: F9A353V cells
Details: transfection of the peptide using a lipid compound; previous experiments

GSE24.2: fragment of 55 amino acids of the internal domain of dyskerin (TRUB domains), activating telomerase (GFINLDKPSNPSSHEVVAWIRRILRVEKTGHSGTLDPKVTGCLIVCIERATRLVK; listed as Homo sapiens)
Signal of the histone H2AX: reduces the signal of the histone H2AX
